The series can be described thus: Solubility test of PrdP2Phen by LC-MS analysis. The class given is physicochemical. As to conditions: 1 mg in 1 mL of water, ultrasonic waves 5 minutes, membrane-filtered, filtrate analysed by LC-MS; one atmosphere, room temperature. As to the method: Next, a solubility test of PrdP2Phen was performed. Note that the solubility test was conducted at a pressure of one atmosphere at room temperature (RT).
In the LC-MS analysis, liquid chromatography (LC) separation was carried out with ACQUITY UPLC (Waters Corporation), and MS analysis (mass spectrometry) was carried out with Xevo G2 Tof MS (Waters Corporation). Acquity UPLC BEH C8 (2.1×100 mm, 1.7 μm) was used as a column for the LC separation. Acetonitrile was used for Mobile Phase A and a 0.1% aqueous solution of formic acid was used for Mobile Phase B. The injection amount of the sample was 5.0 μL. Note that in the analysis, the wavelength of a photodiode array detector was set to 263 nm±1 nm.
In a 5-mL sample bottle, 1 mg of PrdP2Phen was put and 1 mL of water was added thereto. This mixture was irradiated with ultrasonic waves for 5 minutes. This mixture was filtered through a membrane filter to remove the solid, and the resulting filtrate was diluted by five times with acetonitrile. The obtained solution was subjected to LC-MS analysis.

Results on one molecule are retold here after US20250126968A1, “Light-Emitting Device” (Semiconductor Energy Laboratory Co., Ltd., priority 2023, published 2025).

Turning to `c1cc(-c2ccc(N3CCCC3)cc2)c2ccc3c(-c4ccc(N5CCCC5)cc4)ccnc3c2n1` [PrdP2Phen, 4,7-bis[4-(1-pyrrolidinyl)phenyl]-1,10-phenanthroline], the solubility in water result is “extremely low solubility in water”.
